These results are taken from patent publication EP4737450A1 (Longwood Pharmaceuticals (Hangzhou) Co., Ltd, priority 2023, dated 2025).

Like-named read-outs stand apart in the source and are kept apart here.

One assay addresses FXIa (Homo sapiens, UniProt P03951). Kind of assay: Inhibitory activity against FXIa in vitro (biochemical assay). Conditions: values given in µM. The procedure:
Test Example 1. Test of the inhibitory activities of the compounds of the present invention against plasma kallikrein (PKa), KLK1 and FXIa in vitro.
PKK (R & D, Cat # 2497-SE) and Pro-Phe-Arg-AMC (Nanjing Peptide, Cat # NJP23946) solutions were prepared in reaction buffer (50 mM Tris-HCl, pH 7.5, 250 mM NaCl). The final concentrations of enzyme protein and Pro-Phe-Arg-AMC in the reaction mixture were 10 nM and 60 µM, respectively. The starting concentration of the positive reference substance Avoralstat was 100 nM, 3-fold dilution, 10 + 0 dose. 0.05 µL of compound in 100% DMSO was delivered to a 384-well plate by an acoustic liquid delivery technique (Echo665; nanoliter range). Compound duplex test. 5 µL of 2 × enzyme solution was transferred to a 384 reaction plate and centrifuged at 1000 rpm for 1 minute, incubated at 25°C for 15 minutes; 5 µL of 2 × Pro-Phe-Arg-AMC solution was transferred to a 384 reaction plate, centrifuged at 1000 rpm for 1 minute, incubated at 25°C for 3 hours. […] IC50 values and nonlinear regression curve fitting were obtained using GraphPad Prism software.

A further assay concerns the target T1, plasma kallikrein (PKa) (Homo sapiens, UniProt P03952).
T1 construct: purchased R & D 2497-SE
Kind of assay: Inhibitory activity against plasma kallikrein in vitro (fluorescence intensity enzyme assay, Pro-Phe-Arg-AMC substrate). Type of assay: biochemical. Conditions: Pro-Phe-Arg-AMC substrate. The method, boiled down: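 Fluorescence intensity enzyme assay with 10 nM enzyme and 60 µM Pro-Phe-Arg-AMC (final concentrations). Compounds in DMSO, tested in duplicate over a dose series. IC50 from nonlinear regression curve fitting.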

The next assay addresses KLK1 (Homo sapiens, UniProt P06870). Kind of assay: Inhibitory activity against KLK1 in vitro (biochemical assay). The conditions noted are these: values given in µM. The source says:
Test Example 1. Test of the inhibitory activities of the compounds of the present invention against plasma kallikrein (PKa), KLK1 and FXIa in vitro. […]

Setting [1] is: plasma kallikrein enzyme assay, read-out: PKa IC50.

KLK1, sequence (P06870 25-262, species assumed): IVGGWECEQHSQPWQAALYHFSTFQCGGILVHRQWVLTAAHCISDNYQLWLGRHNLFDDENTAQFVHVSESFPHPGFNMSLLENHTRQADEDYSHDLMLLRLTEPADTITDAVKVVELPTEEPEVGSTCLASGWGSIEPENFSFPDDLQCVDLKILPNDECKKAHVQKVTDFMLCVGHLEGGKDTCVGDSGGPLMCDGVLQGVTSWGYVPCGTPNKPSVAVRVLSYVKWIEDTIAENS
T1 sequence (P03952 391-638 limits assumed): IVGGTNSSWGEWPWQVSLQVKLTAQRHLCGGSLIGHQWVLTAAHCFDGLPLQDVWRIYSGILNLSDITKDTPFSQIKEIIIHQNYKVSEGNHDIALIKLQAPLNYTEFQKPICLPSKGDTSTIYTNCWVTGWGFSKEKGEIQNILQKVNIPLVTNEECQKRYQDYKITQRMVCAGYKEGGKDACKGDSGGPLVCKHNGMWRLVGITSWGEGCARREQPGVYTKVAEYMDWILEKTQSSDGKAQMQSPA
T1 sequence (P03952 20-390 partner limits assumed): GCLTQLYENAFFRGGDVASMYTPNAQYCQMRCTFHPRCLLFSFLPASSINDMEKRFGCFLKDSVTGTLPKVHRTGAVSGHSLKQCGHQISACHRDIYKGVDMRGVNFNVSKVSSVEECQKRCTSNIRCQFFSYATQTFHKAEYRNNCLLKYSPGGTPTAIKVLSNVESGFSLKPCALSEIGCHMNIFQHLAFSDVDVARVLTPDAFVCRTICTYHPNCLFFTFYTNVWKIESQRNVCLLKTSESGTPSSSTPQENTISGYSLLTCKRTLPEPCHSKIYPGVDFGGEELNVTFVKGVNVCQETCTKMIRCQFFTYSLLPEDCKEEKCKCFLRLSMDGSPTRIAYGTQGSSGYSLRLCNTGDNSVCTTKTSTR
FXIa, sequence (P03951 388-625 limits assumed): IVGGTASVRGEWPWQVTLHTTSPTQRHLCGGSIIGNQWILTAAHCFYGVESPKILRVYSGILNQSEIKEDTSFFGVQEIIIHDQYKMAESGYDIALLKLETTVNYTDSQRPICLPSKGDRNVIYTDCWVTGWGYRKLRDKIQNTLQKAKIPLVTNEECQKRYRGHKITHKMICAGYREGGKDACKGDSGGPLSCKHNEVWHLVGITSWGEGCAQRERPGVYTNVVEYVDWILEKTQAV
FXIa, sequence (P03951 19-387 partner limits assumed): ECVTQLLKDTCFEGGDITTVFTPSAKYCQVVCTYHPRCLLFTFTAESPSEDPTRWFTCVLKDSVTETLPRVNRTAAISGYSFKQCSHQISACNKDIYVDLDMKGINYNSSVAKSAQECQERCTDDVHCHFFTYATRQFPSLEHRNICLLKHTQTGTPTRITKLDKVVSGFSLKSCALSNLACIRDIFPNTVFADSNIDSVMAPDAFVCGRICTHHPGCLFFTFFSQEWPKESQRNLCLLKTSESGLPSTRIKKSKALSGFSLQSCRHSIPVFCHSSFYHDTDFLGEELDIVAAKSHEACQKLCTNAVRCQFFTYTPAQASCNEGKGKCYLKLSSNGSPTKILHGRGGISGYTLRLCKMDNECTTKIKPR

As to `COCc1cn(Cc2ccc(Cn3ccccc3=O)cc2)nc1C(=O)NCc1c(C)cc(N)nc1C` [Compound 60], the half-inhibitory concentration (IC50) against FXIa was above 10 µM; on plasma kallikrein (PKa) (setting [1]), 0.65 nM; against KLK1, above 10 µM.
In the case of `Cc1cc(N)nc(C)c1CNC(=O)c1ccn(Cc2ccc(Cn3ccccc3=O)cc2)c1` [Compound 61], the values for the IC50 against FXIa, on plasma kallikrein (PKa) (setting [1]) and at KLK1 were above 10 µM, 0.12 nM and above 10 µM, respectively.
With `Cc1cc(N)nc(C)c1CNC(=O)c1cc(Cc2ccc(Cn3ccccc3=O)cc2)cn1C` [Compound 62], the IC50 is above 10 µM against FXIa, 0.12 nM at plasma kallikrein (PKa) (setting [1]) and above 10 µM against KLK1.
For the molecule `Cc1cc(N)nc(C)c1CNC(=O)c1cn(Cc2ccc(CN3CCOCC3=O)cc2)nc1C(F)F` [Compound 64], the IC50 on FXIa is above 10 µM; on plasma kallikrein (PKa) (setting [1]) it was 2.99 nM; against KLK1 it was above 10 µM.
As to `Cc1cc(N)nc(C)c1CNC(=O)c1nsc(Cc2ccc(Cn3ccccc3=O)cc2)n1` [Compound 67], the figures for the IC50 at FXIa, at plasma kallikrein (PKa) (setting [1]) and on KLK1 were above 10 µM, 0.29 nM and above 10 µM, respectively.
With `Cc1cc(N)nc(C)c1CNC(=O)c1csc(Cc2ccc(Cn3ccccc3=O)cc2)n1` [Compound 68], the IC50 was above 10 µM on FXIa, 0.32 nM at plasma kallikrein (PKa) (setting [1]) and above 10 µM on KLK1.
On to `Cc1cc(N)nc(C)c1CNC(=O)c1cn(Cc2ccc(Cn3ccccc3=O)cc2)nc1C(F)F` [Compound 69, N-((6-amino-2,4-dimethylpyridin-3-yl)methyl)-3-(difluoromethyl)-1-(4-(2-oxopyridin-1(2H)-yl)methylbenzyl)-1H-pyrazole-4-carboxamide], for which the IC50 on FXIa was above 10 µM; on plasma kallikrein (PKa) (setting [1]) it was 0.076 nM; on KLK1 it was above 10 µM.
Consider `COCc1nn(Cc2ccc(Cn3ccccc3=O)cc2)cc1C(=O)N[C@@H]1CCc2c1ncn2C` [Compound 70], for which the IC50 at FXIa is above 10 µM; on plasma kallikrein (PKa) (setting [1]), 1.87 nM; at KLK1, above 10 µM.
On to `COCc1nn(Cc2ccc(Cn3ccccc3=O)cc2)cc1C(=O)NCc1ccc2c(N)nccc2c1` [Compound 71], for which the IC50 against FXIa was above 10 µM; on plasma kallikrein (PKa) (setting [1]), 0.19 nM; against KLK1, above 10 µM.
`Cc1cc(N)nc(C)c1CNC(=O)c1ncn(Cc2cc(Cn3ccccc3=O)cs2)n1` [Compound 73]: the IC50 at FXIa is above 10 µM; at plasma kallikrein (PKa) (setting [1]), 3.07 nM; against KLK1, above 10 µM.
Turning to `COCc1cn(Cc2ccc(CN3CCCCC3=O)cc2)nc1C(=O)NCc1c(C)cc(N)nc1C` [Compound 74], the figures for the IC50 against FXIa, at plasma kallikrein (PKa) (setting [1]) and against KLK1 were above 10 µM, 5.7 nM and above 10 µM, respectively.
Regarding `Cc1cc(N)nc(C)c1CNC(=O)c1ccn(Cc2ccc(Cn3cccc(C)c3=O)cc2)n1` [Compound 75], the IC50 was above 10 µM against FXIa, 0.22 nM at plasma kallikrein (PKa) (setting [1]) and above 10 µM against KLK1.
For `Cc1cc(N)nc(C)c1CNC(=O)c1ncn(Cc2cc(Cl)c(Cn3ccccc3=O)cc2Cl)n1` [Compound 80], the IC50 against FXIa is above 10 µM; on plasma kallikrein (PKa) (setting [1]), 0.096 nM; against KLK1, above 10 µM.
For `Cc1cc2nccn2c(C)c1CNC(=O)c1cnn(Cc2ccc(Cn3ccccc3=O)cc2)c1` [Compound 94], the IC50 is above 10 µM against FXIa, 0.53 nM on plasma kallikrein (PKa) (setting [1]) and above 10 µM on KLK1.
With `N=C(N)c1ccc(CNC(=O)c2cnn(Cc3ccc(CC4CC4)cc3)c2)cc1` [Compound 105], the IC50 against FXIa was above 10 µM; at plasma kallikrein (PKa) (setting [1]), 0.26 nM; against KLK1 it was above 10 µM.
As for `Cc1cc(N)nc(C)c1CNC(=O)c1cn(Cc2ccc(Cn3ccccc3=O)cc2)nc1C(F)(F)F` [Compound 116], the IC50 is above 10 µM against FXIa, 0.07 nM on plasma kallikrein (PKa) (setting [1]) and above 10 µM on KLK1.
Regarding `COCc1nn(Cc2ccc(Cn3ccccc3=O)cc2)cc1C(=O)NCc1cn2c(n1)CNCC2` [Compound 118], the IC50 is above 10 µM against FXIa, 0.92 nM at plasma kallikrein (PKa) (setting [1]) and above 10 µM against KLK1.
In the case of `COCc1nn(Cc2ccc(CC3CC3)cc2)cc1C(=O)NCc1ccc(C(=N)N)cc1` [Compound 121], the IC50 at FXIa was above 10 µM; on plasma kallikrein (PKa) (setting [1]), 0.48 nM; at KLK1, above 10 µM.
As to `CCn1cnc2c1CC[C@H]2NC(=O)c1cn(Cc2ccc(Cn3ccccc3=O)cc2)nc1COC` [Compound 130], the IC50 was above 10 µM at FXIa, 1.09 nM on plasma kallikrein (PKa) (setting [1]) and above 10 µM at KLK1.
With `Cc1cc2nccn2c(C)c1CNC(=O)c1nc(Cc2ccc(Cn3ccccc3=O)cc2)ns1` [Compound 137], the IC50 is above 10 µM against FXIa, 0.9 nM at plasma kallikrein (PKa) (setting [1]) and above 10 µM at KLK1.
`Cc1cc2nccn2c(C)c1CNC(=O)c1cn(Cc2ccc(Cn3ccccc3=O)cc2)nc1C(F)(F)F` [Compound 142, N-((5,7-dimethylimidazo[1,2-a]pyridin-6-yl)methyl)-1-(4-((2-oxopyridin-1(2H)-yl)methyl]benzyl)-3-(trifluoromethyl)-1H-pyrazole-4-carboxamide]: the 50% inhibitory concentration (IC50) on FXIa was above 10 µM; at plasma kallikrein (PKa) (setting [1]), 0.35 nM; at KLK1, above 10 µM.
In the case of `COCc1nn(Cc2ccc(Cn3ccccc3=O)cc2)cc1C(=O)NCc1c(C)cc2nccn2c1C` [Compound 143], the IC50 on FXIa was above 10 µM; on plasma kallikrein (PKa) (setting [1]), 0.65 nM; against KLK1, above 10 µM.
On to `COCc1nn(Cc2ccc(Cn3ccccc3=O)cc2)cc1C(=O)NCc1c(C)cn2cncc2c1C` [Compound 147], for which the IC50 at FXIa was above 10 µM; against plasma kallikrein (PKa) (PKa IC50, plasma kallikrein enzyme assay) it was 1.57 nM; on KLK1, above 10 µM.
`COCc1nn(Cc2ccc(C3CCCCC3)c(C(F)(F)F)c2)cc1C(=O)NCc1ccc(C(=N)N)cc1` [Compound 153]: the IC50 is above 10 µM against FXIa, 0.18 nM on plasma kallikrein (PKa) (setting [1]) and above 10 µM against KLK1.
Regarding `O=C(NCc1cc2ccncc2[nH]1)c1cn(Cc2ccc(Cn3ccccc3=O)cc2)nc1C(F)(F)F` [Compound 155], the IC50 is above 10 µM against FXIa, 1.48 nM at plasma kallikrein (PKa) (setting [1]) and above 10 µM at KLK1.
In the case of `COCc1nn(Cc2ccc(N3CC4C(C3)C4(F)F)cc2C#N)cc1C(=O)NCc1cc2cnccc2[nH]1` (stereo not drawn) [Compound 157, N-((1H-pyrrolo[3,2-c]pyridin-2-yl)methyl)-1-(2-cyano-4-(6,6-difluoro-3-azabicyclo[3.1.0]hexan-3-yl)benzyl)-3-(methoxymethyl)-1H-pyrazole-4-carboxamide], the IC50 was above 10 µM against FXIa, 1.89 nM on plasma kallikrein (PKa) (setting [1]) and above 10 µM on KLK1.
On to `Cc1cn2cncc2c(C)c1CNC(=O)c1cn(Cc2ccc(Cn3ccccc3=O)cc2)nc1C(F)(F)F` [Compound 203], for which the values for the IC50 at FXIa, at plasma kallikrein (PKa) (setting [1]) and at KLK1 were above 10 µM, 0.53 nM and above 10 µM, respectively.
Consider `Cc1cc2nccn2c(C)c1CNC(=O)c1cn(Cc2ccc(N3CC4C(C3)C4(F)F)cc2C#N)nc1C(F)(F)F` (stereo not drawn) [Compound 204], for which the results for the IC50 against FXIa, on plasma kallikrein (PKa) (setting [1]) and at KLK1 were above 10 µM, 1.23 nM and above 10 µM, respectively.
Turning to `COc1ccnc(CNC(=O)c2cn(Cc3ccc(Cn4ccccc4=O)cc3)nc2CN2CCN(C)CC2)c1F` [Compound 213], the IC50 against FXIa was above 10 µM; on plasma kallikrein (PKa) (setting [1]) it was 35 nM; against KLK1 it was above 10 µM.
Take `COc1ccc(F)c(CNC(=O)c2cn(Cc3ccc(Cn4cc(F)ccc4=O)cc3)nc2C2CC2(F)F)c1F` (stereo not drawn) [Compound 218]: the half-maximal inhibitory concentration (IC50) against FXIa was above 10 µM; on plasma kallikrein (PKa) (setting [1]), 2.16 nM; on KLK1, above 10 µM.
Regarding `COc1ccc(F)c(CNC(=O)c2cn(Cc3ccc(Cn4ccccc4=O)cc3)nc2COCCN(C)C)c1F` [Compound 222], the IC50 was above 10 µM against FXIa, 1.94 nM at plasma kallikrein (PKa) (setting [1]) and above 10 µM against KLK1.
For the molecule `COc1ccc(F)c(CNC(=O)c2cn(Cc3ccc(Cn4ccccc4=O)cc3)nc2CO[C@H]2CCN(C)C2)c1F` [Compound 225], the IC50 at FXIa was above 10 µM; on plasma kallikrein (PKa) (setting [1]) it was 2.86 nM; at KLK1 it was above 10 µM.
Regarding `Cc1nc(N)c(C)c(C)c1CNC(=O)c1ncn(Cc2ccc(Cn3ccccc3=O)cc2)n1` [Compound 250], the IC50 against FXIa was above 10 µM; on plasma kallikrein (PKa) (setting [1]), 1.9 nM; against KLK1, above 10 µM.
On to `CCc1c(N)nc(C)c(CNC(=O)c2cnn(Cc3ccc(Cn4ccccc4=O)cc3)c2)c1C` [Compound 253], for which the concentration for half-maximal inhibition (IC50) is above 10 µM on FXIa, 0.18 nM at plasma kallikrein (PKa) (setting [1]) and above 10 µM on KLK1.
`COc1cc(Cn2cc(C(=O)NCc3ccc(C(=N)N)cc3)cn2)ccc1CC1CC1` [Compound 255]: the half-inhibitory concentration (IC50) was above 10 µM against FXIa, 2.35 nM at plasma kallikrein (PKa) (setting [1]) and above 10 µM against KLK1.
Turning to `Cc1nc(N)c(C)c(C)c1CNC(=O)c1cnn(Cc2ccc(Cn3ccccc3=O)cc2)c1` [Compound 256], the values for the IC50 against FXIa, on plasma kallikrein (PKa) (setting [1]) and at KLK1 were above 10 µM, 0.44 nM and above 10 µM, respectively.
Turning to `CCc1c(N)nc(C)c(CNC(=O)c2ncn(Cc3ccc(Cn4ccccc4=O)cc3)n2)c1C` [Compound 257], the IC50 against FXIa is above 10 µM; on plasma kallikrein (PKa) (setting [1]) it was 0.67 nM; against KLK1 it was above 10 µM.

For orientation: IC50 means the point on the concentration scale where inhibition reaches its midpoint.
